Results on 26 compounds are retold here after patent publication US20230087118A1, “IMIDAZO[1,2-a][sequence] DERIVATIVES AND THEIR USE IN THE TREATMENT OF DISEASE” (priority 2019, published 2023).

One may read the IC50 as the point on the concentration scale where inhibition reaches its midpoint. A higher IC50 goes with lower potency.

Counter-ions that a name gives are not always drawn.

The target of one experiment is T1, IRAK4 (Homo sapiens, UniProt Q9NWZ3).
T1 sequence (Q9NWZ3 1-460): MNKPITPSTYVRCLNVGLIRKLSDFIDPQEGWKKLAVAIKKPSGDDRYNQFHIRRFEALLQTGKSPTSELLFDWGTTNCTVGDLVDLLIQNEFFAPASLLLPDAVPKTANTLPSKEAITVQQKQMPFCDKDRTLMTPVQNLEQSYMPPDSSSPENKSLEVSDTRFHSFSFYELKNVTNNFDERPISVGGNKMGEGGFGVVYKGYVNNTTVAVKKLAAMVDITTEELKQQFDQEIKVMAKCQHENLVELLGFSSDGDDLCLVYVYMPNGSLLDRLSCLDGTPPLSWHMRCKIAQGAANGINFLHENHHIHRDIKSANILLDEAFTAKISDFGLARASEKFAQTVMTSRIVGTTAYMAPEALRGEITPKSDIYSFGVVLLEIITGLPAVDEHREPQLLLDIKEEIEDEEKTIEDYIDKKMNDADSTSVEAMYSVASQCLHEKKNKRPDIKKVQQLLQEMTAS
The experiment can be described thus: biochemical.
Details: not given
As to `COc1ccn2ncc(NC(=O)c3cn4cc(C56COC(C)(C5)C6)nc4cc3OC(C)C)c2n1` [Example 300, 7-Isopropoxy-N-(5-methoxypyrazolo[1,5-a]pyrimidin-3-yl)-2-(1-methyl-2-oxabicyclo[2.1.1]hexan-4-yl)imidazo[1,2-a]pyridine-6-carboxamide], the midpoint of inhibition, the IC50, lay at 0.0022 µM.

The compound `COc1ccc2ncc(NC(=O)c3cn4cc(C56COC(C)(C5)C6)nc4cc3OC(C)C)n2n1` [Example 301, 7-Isopropoxy-N-(6-methoxyimidazo[1,2-b]pyridazin-3-yl)-2-(1-methyl-2-oxabicyclo[2.1.1]hexan-4-yl)imidazo[1,2-a]pyridine-6-carboxamide] displayed an IC50 of 0.0066 µM.

In the case of `CC(C)Oc1c(C(=O)Nc2cnn3cccnc23)cn2cc(C34COC(C)(C3)C4)nc2c1F` [Example 302, 8-Fluoro-7-isopropoxy-2-(1-methyl-2-oxabicyclo[2.1.1]hexan-4-yl)-N-(pyrazolo[1,5-a]pyrimidin-3-yl)imidazo[1,2-a]pyridine-6-carboxamide], the midpoint of inhibition, the IC50, lay at 0.0077 µM.

`CC(C)Oc1c(C(=O)Nc2cccc(C(F)F)n2)cn2cc(C3CCOCC3)nc2c1F` [Example 303, N-(6-(difluoromethyl)pyridin-2-yl)-8-fluoro-7-isopropoxy-2-(tetrahydro-2H-pyran-4-yl)imidazo[1,2-a]pyridine-6-carboxamide] yielded an IC50 of 0.0014 µM.

`CC(C)Oc1nc2nc(C34CC(C)(C3)OC4(C)C)cn2cc1C(=O)Nc1cnn2cc(F)cnc12` [Example 310, N-(6-fluoropyrazolo[1,5-a]pyrimidin-3-yl)-7-isopropoxy-2-(1,3,3-trimethyl-2-oxabicyclo[2.1.1]hexan-4-yl)imidazo[1,2-a]pyrimidine-6-carboxamide] gave an IC50 of 0.001 µM.

In turn, `CC(C)Oc1cc2nc(C34COC(C)(C3)C4)cn2cc1C(=O)Nc1ccn(CC#N)n1` [Example 313, N-(1-(cyanomethyl)-1H-pyrazol-3-yl)-7-isopropoxy-2-(1-methyl-2-oxabicyclo[2.1.1]hexan-4-yl)imidazo[1,2-a]pyridine-6-carboxamide] displayed an IC50 of 0.0036 µM.

In turn, `COCCn1ccc(NC(=O)c2cn3cc(C45COC(C)(C4)C5)nc3cc2OC(C)C)n1` [Example 314, 7-Isopropoxy-N-(1-(2-methoxyethyl)-1H-pyrazol-3-yl)-2-(1-methyl-2-oxabicyclo[2.1.1]hexan-4-yl)imidazo[1,2-a]pyridine-6-carboxamide] had an IC50 of 0.0258 µM.

As for `CC(C)Oc1cc2nc(C34COC(C)(C3)C4)cn2cc1C(=O)Nc1cccc2cn(C)nc12` [Example 318, 7-Isopropoxy-N-(2-methyl-2H-indazol-7-yl)-2-(1-methyl-2-oxabicyclo[2.1.1]hexan-4-yl)imidazo[1,2-a]pyridine-6-carboxamide], the IC50 came to 0.001 µM.

In turn, `CC(C)Oc1cc2nc(C34COC(C)(C3)C4)cn2cc1C(=O)Nc1ccnc2cccnc12` [Example 319, 7-Isopropoxy-2-(1-methyl-2-oxabicyclo[2.1.1]hexan-4-yl)-N-(1,5-naphthyridin-4-yl)imidazo[1,2-a]pyridine-6-carboxamide] returned an IC50 of 0.0016 µM.

Take `CC(C)Oc1cc2nc(C34COC(C)(C3)C4)cn2cc1C(=O)Nc1cncc2cccnc12` [Example 320, 7-Isopropoxy-2-(1-methyl-2-oxabicyclo[2.1.1]hexan-4-yl)-N-(1,6-naphthyridin-8-yl)imidazo[1,2-a]pyridine-6-carboxamide]: the IC50 turned out to be 0.0004 µM.

`CC(C)Oc1cc2nc(C34COC(C)(C3)C4)cn2cc1C(=O)Nc1cnn2cc(C3CC3)cnc12` [Example 322, N-(6-cyclopropylpyrazolo[1,5-a]pyrimidin-3-yl)-7-isopropoxy-2-(1-methyl-2-oxabicyclo[2.1.1]hexan-4-yl)imidazo[1,2-a]pyridine-6-carboxamide] returned an IC50 of 0.0019 µM.

Staying with this experiment, now noted: IRAK4 Biochemical Assay (1 mM ATP, 2 h) IC50 (μM), 1 mM ATP, 2 h, 100 pM IRAK4.
`CC(C)Oc1cc2nc(C34COC(C)(C3)C4)cn2cc1C(=O)Nc1cccc(C2CC2)n1` [Example 296, N-(6-cyclopropylpyridin-2-yl)-7-isopropoxy-2-(1-methyl-2-oxabicyclo[2.1.1]hexan-4-yl)imidazo[1,2-a]pyridine-6-carboxamide trifluoroacetate] came in with an IC50 of 0.0011 µM.

The compound `CC(C)Oc1cc2nc(C34COC(C)(C3)C4)cn2cc1C(=O)Nc1ccn(C)n1` [Example 297, 7-Isopropoxy-N-(1-methyl-1H-pyrazol-3-yl)-2-(1-methyl-2-oxabicyclo[2.1.1]hexan-4-yl)imidazo[1,2-a]pyridine-6-carboxamide trifluoroacetate] came in with an IC50 of 0.0048 µM.

In turn, `CC(C)Oc1cc2nc(C34COC(C)(C3)C4)cn2cc1C(=O)Nc1cc2ccccn2n1` [Example 298, 7-Isopropoxy-2-(1-methyl-2-oxabicyclo[2.1.1]hexan-4-yl)-N-(pyrazolo[1,5-a]pyridin-2-yl)imidazo[1,2-a]pyridine-6-carboxamide trifluoroacetate] returned an IC50 of 0.063 µM.

For the compound `CC(C)Oc1cc2nc(C34COC(C)(C3)C4)cn2cc1C(=O)Nc1cnn2cccnc12` [Example 299, 7-Isopropoxy-2-(1-methyl-2-oxabicyclo[2.1.1]hexan-4-yl)-N-(pyrazolo[1,5-a]pyrimidin-3-yl)imidazo[1,2-a]pyridine-6-carboxamide trifluoroacetate], the IC50 worked out at 0.0005 µM.

`COc1ncccc1NC(=O)c1cn2cc(C34COC(C)(C3)C4)nc2nc1OC(C)C` [Example 305, 7-Isopropoxy-N-(2-methoxypyridin-3-yl)-2-(1-methyl-2-oxabicyclo[2.1.1]hexan-4-yl)imidazo[1,2-a]pyrimidine-6-carboxamide trifluoroacetate] yielded an IC50 of 0.0005 µM.

In the case of `COc1ncc(F)cc1NC(=O)c1cn2cc(C34COC(C)(C3)C4)nc2nc1OC(C)C` [Example 306, N-(5-fluoro-2-methoxypyridin-3-yl)-7-isopropoxy-2-(1-methyl-2-oxabicyclo[2.1.1]hexan-4-yl)imidazo[1,2-a]pyrimidine-6-carboxamide trifluoroacetate], the midpoint of inhibition, the IC50, lay at 0.0031 µM.

Compound `CC(C)Oc1nc2nc(C34COC(C)(C3)C4)cn2cc1C(=O)Nc1cnn2cccnc12` [Example 307, 7-Isopropoxy-2-(1-methyl-2-oxabicyclo[2.1.1]hexan-4-yl)-N-(pyrazolo[1,5-a]pyrimidin-3-yl)imidazo[1,2-a]pyrimidine-6-carboxamide] displayed an IC50 of 0.0005 µM.

On to `COc1ccc2ncc(NC(=O)c3cn4cc(C56COC(C)(C5)C6)nc4nc3OC(C)C)n2n1` [Example 308, 7-Isopropoxy-N-(6-methoxyimidazo[1,2-b]pyridazin-3-yl)-2-(1-methyl-2-oxabicyclo[2.1.1]hexan-4-yl)imidazo[1,2-a]pyrimidine-6-carboxamide trifluoroacetate], for which the IC50 stood at 0.002 µM.

Regarding `CC(C)Oc1nc2nc(C34COC(C)(C3)C4)cn2cc1C(=O)Nc1cnn2ccc(C(F)F)nc12` [Example 309, N-(5-(difluoromethyl)pyrazolo[1,5-a]pyrimidin-3-yl)-7-isopropoxy-2-(1-methyl-2 oxabicyclo[2.1.1]hexan-4-yl)imidazo[1,2-a]pyrimidine-6-carboxamide trifluoroacetate], the IC50 was determined as 0.0299 µM.

`Cc1cnc2c(NC(=O)c3cn4cc(C56CC(C)(C5)OC6(C)C)nc4nc3OC(C)C)cnn2c1` [Example 311, 7-Isopropoxy-N-(6-methylpyrazolo[1,5-a]pyrimidin-3-yl)-2-(1,3,3-trimethyl-2-oxabicyclo[2.1.1]hexan-4-yl)imidazo[1,2-a]pyrimidine-6-carboxamide trifluoroacetate] registered an IC50 of 0.0014 µM.

As to `CC12CC(c3cn4cc(C(=O)Nc5cccc(C(F)F)n5)c(OC5CC5)nc4n3)(CO1)C2` [Example 312, 7-Cyclopropoxy-N-(6-(difluoromethyl)pyridin-2-yl)-2-(1-methyl-2-oxabicyclo[2.1.1]hexan-4-yl)imidazo[1,2-a]pyrimidine-6-carboxamide trifluoroacetate], the IC50 is 0.0021 µM.

Take `CC(C)Oc1cc2nc(C34COC(C)(C3)C4)cn2cc1C(=O)Nc1ccn(C2CCCC2)n1` [Example 315, N-(1-cyclopentyl-1H-pyrazol-3-yl)-7-isopropoxy-2-(1-methyl-2-oxabicyclo[2.1.1]hexan-4-yl)imidazo[1,2-a]pyridine-6-carboxamide trifluoroacetate]: half-maximal inhibition (IC50) required 0.0045 µM.

Compound `CC(C)Oc1cc2nc(C34COC(C)(C3)C4)cn2cc1C(=O)Nc1cnn(C)n1` [Example 316, 7-Isopropoxy-N-(2-methyl-2H-1,2,3-triazol-4-yl)-2-(1-methyl-2-oxabicyclo[2.1.1]hexan-4-yl)imidazo[1,2-a]pyridine-6-carboxamide trifluoroacetate] returned an IC50 of 0.005 µM.

`CC(C)Oc1cc2nc(C34COC(C)(C3)C4)cn2cc1C(=O)Nc1ccno1` [Example 317, 7-Isopropoxy-N-(isoxazol-5-yl)-2-(1-methyl-2-oxabicyclo[2.1.1]hexan-4-yl)imidazo[1,2-a]pyridine-6-carboxamide trifluoroacetate] gave an IC50 of 0.022 µM.

Compound `CC(C)Oc1cc2nc(C34COC(C)(C3)C4)cn2cc1C(=O)Nc1cnc2cccnn12` [Example 321, N-(imidazo[1,2-b]pyridazin-3-yl)-7-isopropoxy-2-(1-methyl-2-oxabicyclo[2.1.1]hexan-4-yl)imidazo[1,2-a]pyridine-6-carboxamide 2,2,2-trifluoroacetate] returned an IC50 of 0.0003 µM.
